Molecules are shown by their SMILES.

The first experiment addresses CVF-Bb complex (Homo sapiens (Human), UniProt P00751). The experiment in a line: biochemical. In kind it is biochemical.
Settings: not given
Here is the method:
CVF-Bb complex, prepared from purified cobra venom factor, (3 nM) is incubated with a compound of the disclosure at various concentrations for 10 minutes at room temperature in PBS (pH 7.4) containing 10 mM MgCl2 and 0.05% (w/v) CHAPS. Human Complement C3 substrate is added to a final concentration of 1 μM. After 1 hour incubation at room temperature, the enzyme reaction is stopped by addition of a cocktail of concentrated pan-protease inhibitors. The product of the reaction, C3a, is quantified by means of an enzyme-linked-immunosorbent assay and/or denaturing gel electrophoresis (SDS-PAGE). IC50 values are calculated from percentage of inhibition of CVF-Bb activity as a function of test compound concentration.
On to `Cc1cc2c(c3cc[nH]c13)CN1CC[C@@H](C[C@H]1c1ccc(C(=O)O)cc1)OCCCCCCCCCO2` (racemic) [Ex. 34, rac-4-((3^2R,3^4R)-1^7-methyl-11H-4,14-dioxa-1(4,5)-indola-3(1,4)-piperidinacyclotetradecaphane-3^2-yl)benzoic acid], for which the 50% inhibitory concentration (IC50) was greater than 10000 nM.
As to `COc1cc(C)c2[nH]ccc2c1CN1CC[C@H](OCCNC(C)=O)C[C@H]1c1ccc(C(=O)O)cc1` [Compar. Ex. 1, 4-((2S,4S)-4-(2-acetamidoethoxy)-1-((5-methoxy-7-methyl-1H-indol-4-yl)methyl)piperidin-2-yl)benzoic acid, reference compound], the IC50 was found to be 135 nM.
The compound `CCO[C@H]1CCN(Cc2c(OC)cc(C)c3[nH]ccc23)[C@H](c2ccc(C(=O)NS(=O)(=O)CCNC(C)=O)cc2)C1` [Compar. Ex. 2, N-((2-acetamidoethyl)sulfonyl)-4-((2S,4S)-4-ethoxy-1-((5-methoxy-7-methyl-1H-indol-4-yl)methyl)piperidin-2-yl)benzamide, reference compound] displayed an IC50 of 395 nM.
Consider `CCO[C@H]1CCN(Cc2c(OC)cc(C)c3[nH]ccc23)[C@H](c2ccc(C(=O)O)cc2OC)C1` [Ex. 3, 4-((2S,4S)-4-ethoxy-1-((5-methoxy-7-methyl-1H-indol-4-yl)methyl)piperidin-2-yl)-3-methoxybenzoic acid], for which half-maximal inhibition (IC50) required 263 nM.
On the same count and under the same terms, in the case of `CCO[C@@H]1CCN(Cc2c(OC)cc(C)c3[nH]ccc23)[C@H](c2ccc(C(=O)O)cc2OC)C1` [Ex. 4, 4-((2S,4R)-4-ethoxy-1-((5-methoxy-7-methyl-1H-indol-4-yl)methyl)piperidin-2-yl)-3-methoxybenzoic acid] it was 3550 nM.
On the same count and under the same terms, the result for `CCO[C@H]1CCN(Cc2c(OC)cc(C)c3[nH]ccc23)[C@H](c2ccc(C(=O)O)cc2OCCNC(C)=O)C1` [Ex. 6, 3-(2-acetamidoethoxy)-4-((2S,4S)-4-ethoxy-1-((5-methoxy-7-methyl-1H-indol-4-yl)methyl)piperidin-2-yl)benzoic acid] reads 313 nM.
Same read-out and setting: the result for `Cc1cc2c(c3cc[nH]c13)CN1CC[C@@H](C[C@H]1c1ccc(C(=O)O)cc1)OCCCCCCCO2` [Ex. 25, 4-((3^2R,3^4R)-1^7-methyl-1^1H-4,12-dioxa-1(4,5)-indola-3(1,4)-piperidinacyclododecaphane-3^2-yl)benzoic acid] reads greater than 10000 nM; that for `CCO[C@H]1CCN2Cc3c(cc(C)c4[nH]ccc34)OCCCCCCCCOc3cc(C(=O)O)ccc3[C@@H]2C1` [Ex. 30, (19bS,21S)-21-ethoxy-4-methyl-7,8,9,10,11,12,13,14,19b,20,21,22,23,25-tetradecahydro-3H-benzo[7,8]pyrido[1′,2′:5,6][1,9,5]dioxaazacyclo-heptadecino[3,2-e]indole-1^7-carboxylic acid], 4910 nM.
In turn, `CCO[C@H]1CCN2Cc3c(cc(C)c4[nH]ccc34)OCCCCCCCCCOc3cc(C(=O)O)ccc3[C@@H]2C1` [Ex. 31, (20bS,22S)-22-ethoxy-4-methyl-3,7,8,9,10,11,12,13,14,15,20b,21,22,23,24,26-hexadecahydrobenzo[7,8]pyrido[1′,2′:5,6][1,9, 5]dioxaazacyclooctadecino[3,2-e]indole-18-carboxylic acid] gave an IC50 of 2870 nM.
As to `CCO[C@H]1CCN2Cc3c(cc(C)c4[nH]ccc34)OCCCCCCCCCCOc3cc(C(=O)O)ccc3[C@@H]2C1` [Ex. 32, (21bS,23S)-23-ethoxy-4-methyl-7,8,9,10,11,12,13,14,15,16,21b,22,23,24,25,2 7-hexadecahydro-3H-benzo[7,8]pyrido[1′,2′:5,6][1,9,5]dioxaazacyclo-nonadecino[3,2-e]indole-19-carboxylic acid], the IC50 is greater than 10000 nM.
For the compound `COc1cc(C)c2[nH]ccc2c1CN1CC[C@H]2C[C@H]1c1ccc(C(=O)NS(C)(=O)=O)cc1OCCCCCCO2` [Ex. 33, (1^2S,1^4S)-1^1-((5-methoxy-7-methyl-1H-indol-4-yl)methyl)-N-(methylsulfonyl)-3,10-dioxa-1(2,4)-piperidina-2(1,2)-benzenacyclodecaphane-2^4-carboxamide], the half-maximal inhibitory concentration (IC50) was 96 nM.
On the same count and under the same terms, the result for `Cc1cc2c(c3cc[nH]c13)CN1CC[C@@H](C[C@H]1c1ccc(C(=O)O)cc1)OCCCCCCCCO2` [Ex. 35, 4-((3^2R,3^4R)-1^7-methyl-11H-4,13-dioxa-1(4,5)-indola-3(1,4)-piperidinacyclotridecaphane-3^2-yl)benzoic acid] reads greater than 10000 nM.
The same measure, in the same setting: in the case of `COc1cc(C)c2[nH]ccc2c1CN1CC[C@H]2C[C@H]1c1ccc(C(=O)O)cc1/C=C/CCCCCO2` [Ex. 36, (1^2R,1^4R,E)-1^1-((5-methoxy-7-methyl-1H-indol-4-yl)methyl)-10-oxa-1(2,4)-piperidina-2(1,2)-benzenacyclodecaphan-3-ene-2^4-carboxylic acid] it was 241 nM.
Still for that read-out and setting: the result for `COc1cc(C)c2[nH]ccc2c1CN1CC[C@H]2C[C@H]1c1ccc(C(=O)O)cc1/C=C\CCCCCO2` [Ex. 37, (1^2R,1^4R,Z)-1^1-((5-methoxy-7-methyl-1H-indol-4-yl)methyl)-10-oxa-1(2,4)-piperidina-2(1,2)-benzenacyclodecaphan-3-ene-2^4-carboxylic acid] reads 263 nM.
Compound `COc1cc(C)c2[nH]ccc2c1CN1CC[C@H]2C[C@H]1c1ccc(C(=O)O)cc1/C=C/CCCCCCO2` [Ex. 38, (1^2R,1^4R,E)-11-((5-methoxy-7-methyl-1H-indol-4-yl)methyl)-1^1-oxa-1(2,4)-piperidina-2(1,2)-benzenacycloundecaphan-3-ene-2^4-carboxylic acid] had an IC50 of 160 nM.
Still for that read-out and setting: in the case of `COc1cc(C)c2[nH]ccc2c1CN1CC[C@H]2CC1c1ccc(C(=O)O)cc1CCCCCCCO2` [Ex. 39, (1^2S,1^4RS)-1^1-((5-methoxy-7-methyl-1H-indol-4-yl)methyl)-10-oxa-1(2,4)-piperidina-2(1,2)-benzenacyclodecaphane-2^4-carboxylic acid] it was 251 nM; in that of `COc1cc(C)c2[nH]ccc2c1CN1CC[C@H]2C[C@H]1c1ccc(C(=O)NS(C)(=O)=O)cc1OCCCCCO2` [Ex. 40, (1^2R,1^4R)-1^1-((5-methoxy-7-methyl-1H-indol-4-yl)methyl)-N-(methylsulfonyl)-3,9-dioxa-1(2,4)-piperidina-2(1,2)-benzenacyclononaphane-2^4-carboxamide], 309 nM.
In turn, `COc1cc(C)c2[nH]ccc2c1CN1CC[C@H]2C[C@H]1c1ccc(C(=O)O)cc1CCCCCCCCO2` [Ex. 41, (1^2R,1^4R)-1^1-((5-methoxy-7-methyl-1H-indol-4-yl)methyl)-11-oxa-1(2,4)-piperidina-2(1,2)-benzenacycloundecaphane-2^4-carboxylic acid] displayed a half-inhibitory concentration (IC50) of 129 nM.

The same experiment, now with this note: read-out: IC50.
In the case of `COc1cc(C)c2[nH]ccc2c1CN1CCC2CC1c1ccc(C(=O)O)cc1OCCCCCCO2` (centres unmarked) [Ex. 5, (1^2S,1^4S)-11-((5-methoxy-7-methyl-1H-indol-4-yl)methyl)-3,10-dioxa-1(2,4)-piperidina-2(1,2)-benzenacyclodecaphane-2^4-carboxylic acid], the half-maximal inhibitory concentration (IC50) was 262 nM.
The same measure, in the same setting: the result for `COc1cc(C)c2[nH]ccc2c1CN1CC[C@H]2C[C@H]1c1ccc(C(=O)O)cc1OCCCCCCCO2` [Ex. 7, (1^2S,1^4S)_1^1-((5-methoxy-7-methyl-1H-indol-4-yl)methyl)-3,11-dioxa-1(2,4)-piperidina-2(1,2)-benzenacycloundecaphane-2^4-carboxylic acid] reads 384 nM; that for `COc1cc(C)c2[nH]ccc2c1CN1CC[C@H]2C[C@H]1c1ccc(C(=O)O)cc1OCCCCCO2` [Ex. 8, (1^2S,1^4S)_1^1-((5-methoxy-7-methyl-1H-indol-4-yl)methyl)-3,9-dioxa-1(2,4)-piperidina-2(1,2)-benzenacyclononaphane-2^4-carboxylic acid], 397 nM; that for `COc1cc(C)c2[nH]ccc2c1CN1CC[C@H]2C[C@H]1c1ccc(C(=O)O)cc1OCC/C=C\CO2` [Ex. 9, (1^2S,1^4S,Z)-1^1-((5-methoxy-7-methyl-1H-indol-4-yl)methyl)-3,9-dioxa-1(2,4)-piperidina-2(1,2)-benzenacyclononaphan-6-ene-2^4-carboxylic acid], 342 nM.
On the same count and under the same terms, in the case of `COc1cc(C)c2[nH]ccc2c1CN1CC[C@H]2C[C@H]1c1ccc(C(=O)O)cc1OCCCC/C=C\CO2` [Ex. 10, (1^2S,1^4S,Z)-1^1-((5-methoxy-7-methyl-1H-indol-4-yl)methyl)-3,11-dioxa-1(2,4)-piperidina-2(1,2)-benzenacycloundecaphan-8-ene-2^4-carboxylic acid] it was 384 nM.
The same measure, in the same setting: the result for `COc1cc(C)c2[nH]ccc2c1CN1CC[C@H]2C[C@H]1c1ccc(C(=O)O)cc1OCCC/C=C\CO2` [Ex. 11, (1^2S,1^4S,Z)-1′-((5-methoxy-7-methyl-1H-indol-4-yl)methyl)-3,10-dioxa-1(2,4)-piperidina-2(1,2)-benzenacyclodecaphan-7-ene-2^4-carboxylic acid] reads 1200 nM; that for `COc1cc(C)c2[nH]ccc2c1CN1CC[C@H]2C[C@H]1c1ccc(C(=O)O)cc1OCCn1cc(nn1)CO2` [Ex. 12, (2^2S,2^4S,Z)-2^1-((5-methoxy-7-methyl-1H-indol-4-yl)methyl)-5′H-3,8-dioxa-2(2,4)-piperidina-5(4,1)-triazola-1(1,2)-benzenacyclooctaphane-1^4-carboxylic acid], 280 nM.
As for `COc1cc(C)c2[nH]ccc2c1CN1CC[C@H]2C[C@H]1c1ccc(C(=O)O)cc1OCCCn1cc(nn1)CO2` [Ex. 13, (2^2S,2^4S,Z)-2^1-((5-methoxy-7-methyl-1H-indol-4-yl)methyl)-5′H-3,9-dioxa-2(2,4)-piperidina-5(4,1)-triazola-1(1,2)-benzenacyclononaphane-1^4-carboxylic acid], the concentration for half-maximal inhibition (IC50) was 1110 nM.

Values taken from patent US20240182503A1, “MACROCYCLE COMPLEMENT FACTOR B INHIBITORS” (priority 2021, published 2024).
